# Tested on: HCV replicon cells
# Test: Cell-based HCV replicon assay (replicon RNA level by real time PCR, Taqman)
# Details: Hepatitis C virus, 72 h, HCV replicon cells, harvested day 3, replicon RNA by real time PCR; given as number; read-out: EC90 (μM) range
# Outline: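 HCV replicon cells treated 3 days with 10 serial 2-fold compound dilutions (top 25 μM to 1 μM; 0.5% DMSO, 10% FBS). Replicon RNA quantified by multiplex Taqman RT-PCR (NS5B amplicon, GAPDH control); EC50 and EC90 = concentrations giving ΔCT of 1 and 3.2 over baseline.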
row,Structure (SMILES),EC90
1,COCCNc1nc(C)c(-c2cc3cc(OC)ncc3o2)c(N[C@@H]2C[C@H](CO)[C@@H](O)[C@H]2O)n1 [Example 25],0.8 µM
2,Cc1nc(NCC2CC2)nc(N[C@@H]2C[C@H](CO)[C@@H](O)[C@H]2O)c1-c1cc2cc(OCC3CC3)nc(C)c2o1 [Example 42],0.3 µM
3,Cc1nc(NCC(C)(C)C)nc(N[C@@H]2C[C@H](CO)[C@@H](O)[C@H]2O)c1-c1cc2cc(OCC3CC3)ncc2o1 [Example 58],1 µM

# Same assay, conditions: Hepatitis C virus, 72 h, HCV replicon cells, harvested day 3, replicon RNA by real time PCR; reported as range class; read-out: EC90 (μM) range
row,Structure (SMILES),EC90
1,CNc1nc(Cl)c(-c2nc3ccccc3s2)c(N[C@@H]2C[C@H](CO)[C@@H](O)[C@H]2O)n1 [Example 403],< 0.5 µM
2,OC[C@H]1C[C@@H](Nc2nc(NCC(F)(F)F)nc(Cl)c2-c2nc3ccccc3s2)[C@H](O)[C@@H]1O [Example 124],< 0.5 µM
3,COc1cc2cc(-c3c(Cl)nc(N)nc3N[C@@H]3C[C@H](COC(=O)C(F)(F)F)[C@@H](O)[C@H]3O)oc2cn1 [Example 10],< 0.5 µM
4,Cc1nccc2cc(-c3c(Cl)nc(N)nc3N[C@@H]3C[C@H](CO)[C@@H](O)[C@H]3O)oc12 [Example 305],< 0.5 µM
5,Cc1cc2cc(-c3c(Cl)nc(N)nc3N[C@@H]3C[C@H](CO)[C@@H](O)[C@H]3O)oc2cn1 [Example 306],< 0.5 µM
6,Nc1nc(Cl)c(-c2cc3ccncc3o2)c(N[C@@H]2C[C@H](CO)[C@@H](O)[C@H]2O)n1 [Example 9],< 0.5 µM
7,Nc1nc(Cl)c(-c2ccccn2)c(N[C@@H]2C[C@H](CO)[C@@H](O)[C@H]2O)n1 [Example 157],> 5 µM

# Same assay, conditions: Hepatitis C virus, 72 h, HCV replicon cells, harvested on day 3, replicon RNA by real time PCR; calculated EC90 reported as range class; read-out: EC90 (μM) range
row,Structure (SMILES),EC90
1,CCCCCNc1nc(Cl)c(-c2cc3cc(C)nc(C)c3o2)c(N[C@@H]2C[C@H](CO)[C@@H](O)[C@H]2O)n1 [Example 450],< 0.5 µM
2,COc1cccc(CNc2nc(C)c(-c3nc4ccccc4s3)c(N[C@@H]3C[C@H](CO)[C@H]4OC(C)(C)O[C@H]43)n2)c1 [Example 483],0.5 to 5 µM
3,CN(C)c1nc(Cl)c(-c2cc3ccncc3o2)c(N[C@@H]2C[C@H](CO)[C@@H](O)[C@H]2O)n1 [Example 522],0.5 to 5 µM
4,Cc1nc(NCc2ccco2)nc(N[C@@H]2C[C@H](CO)[C@@H](O)[C@H]2O)c1-c1nc2ccccc2s1 [Example 470],< 0.5 µM
5,Cc1cc(C)cc(CNc2nc(C)c(-c3nc4ccccc4s3)c(N[C@@H]3C[C@H](CO)[C@@H](O)[C@H]3O)n2)c1 [Example 713],< 0.5 µM
6,C[C@H](Nc1nc(Cl)c(-c2nc3ccccc3s2)c(N[C@@H]2C[C@H](CO)[C@@H](O)[C@H]2O)n1)c1ccccc1 [Example 440],0.5 to 5 µM
7,Cc1nc(NCc2cccc(F)c2)nc(N[C@@H]2C[C@H](CO)[C@H]3OC(C)(C)O[C@H]32)c1-c1nc2ccccc2s1 [Example 243],< 0.5 µM
8,OC[C@H]1C[C@@H](Nc2nc(NC3CCNCC3)nc(Cl)c2-c2nc3ccccc3s2)[C@H](O)[C@@H]1O [Example 510],> 5 µM

# Same assay, conditions: Hepatitis C virus, 72 h, HCV replicon cells, replicon RNA level by real time PCR (Taqman), day 3; calculated EC90; read-out: EC90 (μM) range
row,Structure (SMILES),EC90
1,Cc1nc(N[C@@H](C2CC2)C(F)(F)F)nc(N[C@@H]2C[C@H](CO)[C@@H](O)[C@H]2O)c1-c1nc2ccccc2s1 [Example 2013],0.5 to 5 µM
2,Cc1ccc(CNc2nc(C)c(-c3nc4ncccc4o3)c(N[C@@H]3C[C@H](CO)[C@@H](O)[C@H]3O)n2)cc1 [Example 2007],< 0.5 µM

# Same assay, conditions: Hepatitis C virus, 72 h, HCV replicon cells, replicon RNA level by real time PCR (Taqman), harvested on day 3; calculated EC90 reported as range class; read-out: EC90 (μM) range
row,Structure (SMILES),EC90
1,Cc1nc(NCC(C)(C)C)nc(N[C@@H]2C[C@H](CO)[C@@H](O)[C@H]2O)c1-c1nc2c(C)nccc2s1 [Example 1319],< 0.5 µM
2,Cc1nc(NCc2ccco2)nc(N[C@@H]2C[C@H](CO)[C@H]3OC(C)(C)O[C@H]32)c1-c1nc2ccccc2s1 [Example 1109],0.5 to 5 µM
3,CCOc1nc(C)cc2cc(-c3c(C)nc(NCC4CC4)nc3N[C@@H]3C[C@H](CO)[C@@H](O)[C@H]3O)oc12 [Example 1238],0.5 to 5 µM
4,Cc1nc(N(C)C)nc(N[C@@H]2C[C@H](CO)[C@@H](O)[C@H]2O)c1-c1nc2cnccc2s1 [Example 533],> 5 µM
5,COc1ccc(Nc2nc(C)c(-c3nc4ccccc4s3)c(N[C@@H]3C[C@H](CO)[C@@H](O)[C@H]3O)n2)cc1 [Example 1221],0.5 to 5 µM
6,CCOCCCCNc1nc(C)c(-c2nc3ccccc3s2)c(N[C@@H]2C[C@H](CO)[C@@H](O)[C@H]2O)n1 [Example 1052],< 0.5 µM
7,Cc1cc2cc(-c3c(C)nc(NCC(F)(F)F)nc3N[C@@H]3C[C@H](CO)[C@@H](O)[C@H]3O)oc2c(OC(C)C)n1 [Example 1247],< 0.5 µM
8,CCOc1nc(C)cc2cc(-c3c(C)nc(NCc4cc(OC)cc(OC)c4)nc3N[C@@H]3C[C@H](CO)[C@@H](O)[C@H]3O)oc12 [Example 1248],0.5 to 5 µM
9,Cc1nc(N[C@@H](C)c2ccccc2)nc(N[C@@H]2C[C@H](CO)[C@@H](O)[C@H]2O)c1-c1nc2cnccc2s1 [Example 1305],0.5 to 5 µM
10,CC[C@@H](C)Nc1nc(C)c(-c2nc3cnccc3s2)c(N[C@@H]2C[C@H](CO)[C@@H](O)[C@H]2O)n1 [Example 1316],< 0.5 µM
11,COc1cc(COc2nc(C)c(-c3nc4ccccc4s3)c(N[C@@H]3C[C@H](CO)[C@@H](O)[C@H]3O)n2)cc(OC)c1 [Example 1210],> 5 µM
12,Cc1ccc([C@H](C)Nc2nc(C)c(-c3nc4cnccc4s3)c(N[C@@H]3C[C@H](CO)[C@@H](O)[C@H]3O)n2)cc1 [Example 1314],0.5 to 5 µM
13,COc1cc(CNc2nc(CF)c(-c3nc4ccccc4s3)c(N[C@@H]3C[C@H](CO)[C@@H](O)[C@H]3O)n2)cc(OC)c1 [Example 1121],0.5 to 5 µM
14,Cc1nc(NCc2cccc(N(C)C)c2)nc(N[C@@H]2C[C@H](CO)[C@@H](O)[C@H]2O)c1-c1nc2ccccc2s1 [Example 1106],< 0.5 µM
15,COc1cccc(Nc2nc(C)c(-c3nc4ccccc4s3)c(N[C@@H]3C[C@H](CO)[C@@H](O)[C@H]3O)n2)c1OC [Example 1129],> 5 µM
16,Cc1nc(NCC2CC2)nc(N[C@@H]2C[C@H](CO)C[C@H]2O)c1-c1nc2ccccc2s1 [Example 1251],0.5 to 5 µM
17,Cc1nc(N[C@H](C)C(C)(C)C)nc(N[C@@H]2C[C@H](CO)[C@@H](O)[C@H]2O)c1-c1nc2cnccc2s1 [Example 1308],0.5 to 5 µM
18,COc1cccc2sc(-c3c(C)nc(NCC(F)(F)F)nc3N[C@@H]3C[C@H](C(C)O)[C@@H](O)[C@H]3O)nc12 (stereo partly shown) [Example 1072],0.5 to 5 µM

# Same assay, conditions: Hepatitis C virus, 72 h, HCV replicon cells, replicon RNA level by real time PCR, harvested day 3; read-out: EC90 (μM) range
row,Structure (SMILES),EC90
1,Cc1nc(NCc2cc3cn[nH]c3cc2F)nc(N[C@@H]2C[C@H](CO)[C@@H](O)[C@H]2O)c1-c1nc2cnccc2s1 [Example 1911],< 0.5 µM
2,CCC1(O)[C@H](O)[C@@H](CO)C[C@H]1Nc1nc(NCC2CC2)nc(C)c1-c1nc2cnccc2s1 (stereo partly shown) [Example 1385],< 0.5 µM
3,Cc1nc(N[C@@H](c2cccs2)C(F)(F)F)nc(N[C@@H]2C[C@H](CO)[C@@H](O)[C@H]2O)c1-c1nc2ccccc2s1 [Example 1801],< 0.5 µM
4,Cc1nc(N[C@H](C)C(F)(F)F)nc(N[C@@H]2C[C@H](CO)[C@@H](O)[C@H]2O)c1-c1nc2c(C)nccc2s1 [Example 1351],< 0.5 µM
5,Cc1ccsc1CCNc1nc(C)c(-c2nc3cnccc3s2)c(N[C@@H]2C[C@H](CO)[C@@H](O)[C@H]2O)n1 [Example 1707],< 0.5 µM
6,CCOCCNc1nc(C)c(-c2nc3c(C)nc(OCC)cc3s2)c(N[C@@H]2C[C@H](CO)[C@@H](O)[C@H]2O)n1 [Example 1376],< 0.5 µM
7,Cc1nc(NCC(F)(F)F)nc(N[C@@H]2C[C@H](CN)[C@@H](O)[C@H]2O)c1-c1nc2ccccc2s1 [Example 1519],0.5 to 5 µM
8,Cc1nc(N[C@@H](c2ccccc2)C(F)(F)F)nc(N[C@@H]2C[C@H](CO)[C@@H](O)[C@H]2O)c1-c1nc2c(C)nccc2s1 [Example 1353],< 0.5 µM

# From patent US8697694B2, “Substituted pyridine and pyrimidine derivatives and their use in treating viral infections” (priority 2008, dated 2014)
